Experiments:
CT-DNA [1] = experiment: Cyclic voltammetry in the absence and presence of CT-DNA; format: binding; conditions: absence of DNA, 0.5% DMSO/PBS, glassy carbon vs saturated calomel; for cathodic peak potential Epc: Co(III) to Co(II)
Procedure: Electrochemical studies of complexes 1 and 2 were recorded in 0.5% DMSO/PBS buffer solution, with glassy carbon as working electrode vs saturated calomel as reference electrode and Pt wire as auxiliary electrode. […] On addition of CT-DNA to each cobalt complex solution, no new peak appeared. […] The decrease in voltammetric current in the presence of CT- DNA is possibly due to the diffusion of the complexes 1 and 2 bound to the large, slowly diffusing DNA molecule[39],[40]. The positive shifts indicate that complexes 1 and 2 bind to DNA through intercalation as observed in the spectroscopic studies[39],[40].
For cyclic voltammetry experiments, the electrode surfaces were freshly polished with alumina powder and then sonicated in ethanol and distilled water for 1 min prior to each experiment and the electrode was rinsed with doubly distilled water thoroughly between each polishing step. Finally, each electrode was cleaned thoroughly in an ultrasonic cleaner again with doubly distilled water. Cyclic voltammetric experiments were performed at room temperature in […] in a single compartment cell with a three-electrode configuration, namely, glassy carbon working electrode, platinum wire auxiliary electrode and saturated calomel as reference electrode. Before experiments, all solutions were deaerated with dry nitrogen gas for 10 min to remove dissolved oxygen and kept in nitrogen atmosphere throughout the experiments.

A549 cells = conditions: A549, respective IC50 concentrations, 24 h
Procedure: AO/EB Staining of A549 cells: The mode of cell death induced by the complexes was deciphered using acridine orange (AO) and ethidium bromide (EB) staining protocol. Cells were cultured in 6 well plates, treated with the complexes and allowed for 24 h. Then the cells were incubated with AO and EB solutions (1 part of 100 μg/mL AO and 1 part of 100 μg/mL of EB in PBS) and examined in a fluorescent microscope (Carl Zeiss, Jena, Germany) using a UV filter (450–490 nm). Three hundred cells per sample were counted in triplicate for each dose point. The cells were scored as viable, apoptotic and necrotic as judged by the staining pattern, nuclear morphology and cytoplasmic integrity. The percentage of apoptotic and necrotic cells were calculated and the morphological changes were also photographed.

[2] = system: developing blood vessels of the chicken chorioallantoic membrane; experiment: Chicken chorioallantoic membrane (CAM) assay; format: in vivo; conditions: for inhibition of vessel formation: 10 µM on filter paper discs, end of incubation (6 h); for angiogenic parameters (vessel size, vessel length, number of vessel branches): 10 µM, angioquant software, compared to control
Procedure: Chicken chorioallantoic membrane (CAM) assay is a well-known in vivo angiogenesis assay. To confirm the anti-angiogenic properties of cobalt complexes 1 and 2, CAM assay was performed. The complexes 1 and 2, on incubation for […], produced excellent inhibitory activity on the developing blood vessels. […] Several angiogenic parameters such as vessel size, vessel length and number of vessel branches were quantified using angioquant software as practiced in an earlier study[77] and represented as bar diagram (Fig. 5). […] This trend is also in tune with the DNA binding ability and anti-cancer activity of the complexes 1 and 2.
The Institutional Animal Care and Use Committee, an Association of New England Medical Center and Tufts (IACUC) and the National Institute of Health, USA, had established that a chick embryo that has not reached the 14th day of its developmental period would not experience pain and can, therefore, be used for experimentation without any ethical restrictions or prior protocol approval[95]–[97]. The anti-angiogenic activity was investigated on adopting the Chicken chorioallantoic membrane (CAM) assay. Briefly, specific pathogen-free (SPF) fertile chicken eggs were obtained from a government poultry farm. The eggs were incubated at 37 °C in a humid atmosphere. On the 5th day of incubation, the shell was cautiously broken using forceps. Precautions were taken to prevent puncture of any of the blood vessels during the transfer. The stock solutions were prepared by dissolving the complexes 1 and 2 in DMSO and then diluted suitably with the corresponding buffer to the required concentrations for all the experiments. The final DMSO concentration never exceeded 0.1%. Sterile filter paper discs (6 mm dia) soaked in solution of complexes (10 µM) were placed in 3 different positions over the generating blood vessels. For the control experiments sterile filter paper disks (6 mm dia) soaked with 10 µM of 0.1% of DMSO in PBS were used. Images of blood vessels (i.e., 0 h) were taken using stereo microscope (Nexius Zoom). The eggs were aseptically transferred in a humidified incubator at 37 °C and images were captured after 6 h incubation.

CT-DNA [3] = experiment: Electronic absorption titration of the complexes with CT-DNA; format: binding; conditions: for intrinsic binding constant Kb: CT-DNA, plot of [DNA]/(εa−εf) vs [DNA]; for percentage of hypochromism (% H) / red shift: absorption spectra on incremental addition of CT-DNA
Procedure: The absorption spectra of the complexes 1 and 2 were measured in presence and absence of CT-DNA, and the results are shown in Fig. 2.
The value of DNA binding constant (Kb) of the complexes 1 and 2 were calculated using the equation[32], [DNA]/(εa−εf)=[DNA]/(ε0−εf)+1/Kb(ε0−εf) where [DNA] is the concentration of DNA expressed in base pairs; εa is called as apparent extinction coefficient which is determined by calculating Aobs/[complex], εf and ε0 are the apparent free and fully-bound cobalt(III) complex extinction coefficients.
The intrinsic binding constants Kb of complexes 1 and 2 were calculated from the plot of [DNA]/ (εa-εf) versus [DNA] the values are shown in Table 1. […] As both the complexes intercalated with DNA, it is expected that salicylaldehyde aromatic moiety is involved in the intercalation. […] This is due to the presence of additional aromatic phenyl ring in the salophen Schiff base ligand in complex 2 which enhanced stacking interaction between salicylaldehyde aromatic moiety and DNA bases.
Concentrated stock solution of DNA was prepared in PBS and sonicated for 25 cycles, where in each cycle consisted of 30 seconds with 1 min intervals. The DNA concentration per nucleotide was determined by electronic absorption spectroscopy using the known molar extinction coefficient value of 6600 M^−1 cm^−1 at 260 nm[79].
The stock solutions were prepared by dissolving the complexes 1 and 2 in an aqueous solution of DMSO as the co-solvent, and then diluted suitably with the corresponding buffer to the required concentrations for all the experiments. The final DMSO concentration never exceeded 0.5%. For absorption and emission spectral experiments, the DNA solutions were pre-treated with the solutions of metal complexes to ensure no change in the metal complex concentrations.
Absorption studies were performed by maintaining the constant concentration of both the complexes and varying the CT-DNA concentration. An equal amount of CT-DNA was added to the complexes and the reference solution to eliminate the absorbance of CT-DNA itself.

Row | SMILES | cathodic peak current ipc (CT-DNA [1]) | cathodic peak potential Epc (CT-DNA [1]) | mode of cell death (AO/EB staining) (A549 cells) | inhibition of vessel formation [2] | angiogenic parameters (vessel size, vessel length, number of vessel branches) [2] | intrinsic binding constant Kb (CT-DNA [3]) | percentage of hypochromism (% H) (CT-DNA [3]) | red shift (CT-DNA [3])
1 | CCCCCCCCCCCC[NH2+][Co-3]123([NH2+]CCCCCCCCCCCC)[O]c4ccccc4C=[N+]1c1ccccc1[N+]2=Cc1ccccc1[O]3.[O-][Cl+3]([O-])([O-])[O-] [Complex 2, trans-[Co(salophen)(DA)2](ClO4)] | −3.622 × 10^−6 A | −0.265 V | most of the cells succumbed to apoptosis and a few to necrosis | profound inhibition of vessel formation | reduction in all of these parameters compared to control | 31500 M⁻¹ | 36.81% | 13 nm
2 | CCCCCCCCCCCC[NH2+][Co-3]123([NH2+]CCCCCCCCCCCC)[O]c4ccccc4C=[N+]1CC[N+]2=Cc1ccccc1[O]3.[O-][Cl+3]([O-])([O-])[O-] [Complex 1, trans-[Co(salen)(DA)2](ClO4)] | −1.184 × 10^−5 A | −0.490 V | most of the cells succumbed to apoptosis and a few to necrosis | profound inhibition of vessel formation | reduction in all of these parameters compared to control | 13100 M⁻¹ | 31.54% | 10 nm

Source: PMC6389928, “Biomolecular Interaction, Anti-Cancer and Anti-Angiogenic Properties of Cobalt(III) Schiff Base Complexes” (Scientific Reports, 2019)
